Measured values: patent US20240217982A1, “KRAS INHIBITORS” (Bristol-Myers Squibb Company, priority 2021, published 2024)

Experiments:
[1] = target: T1, KRAS G12D (Homo sapiens (Human), UniProt P01116, G12D); experiment: KRAS G12D RAF Disruption Assay (HTRF); assay type: biochemical; details: recombinant GMPPNP-loaded KRAS G12D (5 nM), GST-RAF1 RBD (9 nM), HTRF signal
Experimental: Recombinant GMPPNP-loaded KRAS G12D (5 nM) was treated with compound at room temperature for 20 minutes in assay buffer (50 mM Tris pH 7.5, 100 mM NaCl, 1 mM MgCl2, 1 mM DTT, 100 ug/mL BSA).

[2] = target: T1, KRAS G12D; experiment: KRAS G12D Nucleotide Exchange Assay (HTRF); assay type: biochemical; details: recombinant GDP-loaded KRAS G12D (20 nM), BIODIPY-labeled GDP (400 nM), recombinant SOS (10 nM), HTRF signal
Experimental: Recombinant GDP-loaded KRAS G12D (20 nM) was treated with compound at room temperature for 20 minutes in assay buffer (10 mM Hepes pH 7.4, 150 mM NaCl, 5 mM MgCl2, 0.0025% Igepal-CA630, 0.05% BSA, 1 mM DTT, 0.5 nM SA-Tb). BIODIPY-labeled GDP (400 nM) and recombinant SOS (10 nM) were added, and the reaction was incubated for 30 minutes.

T1 sequence (P01116-2 other isoform, or with tags, fused parts or gaps G12D): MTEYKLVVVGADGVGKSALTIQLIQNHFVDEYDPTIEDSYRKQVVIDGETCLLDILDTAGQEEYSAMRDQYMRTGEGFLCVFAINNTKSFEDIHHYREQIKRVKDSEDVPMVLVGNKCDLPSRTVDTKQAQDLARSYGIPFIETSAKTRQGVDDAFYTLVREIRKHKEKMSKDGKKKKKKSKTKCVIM

Structure (SMILES)	KRASG12D RAF Disruption Assay (IC50, µM) [1]	KRASG12D Nucleotide Exchange Assay (IC50, µM) [2]
CN1CCC[C@H]1COc1nc(N2C3CCNCC2CC3)c2cc(Cl)c(-c3cc(O)cc4ccccc34)c(F)c2n1 (stereo partly drawn) [Example 1-1, 4-(6-chloro-4-{3,9-diazabicyclo[4.2.1]nonan-9-yl}-8-fluoro-2-{[(2S)-1-methylpyrrolidin-2-yl]methoxy}quinazolin-7-yl)naphthalen-2-ol]	41.99 µM	33.33 µM
Oc1cc(-c2c(Cl)cc3c(N4CC[C@H]5CC[C@@H](C4)N5)nc(OC[C@@]45CCCN4C[C@H](F)C5)nc3c2F)c2ccccc2c1 (single isomer, unassigned) [Example 8-8]	15.5 µM	0.3 µM
Cc1cc(N)nc(-c2ccc3c(N4CC[C@H]5CC[C@@H](C4)N5)nc(OC[C@@]45CCCN4C[C@H](F)C5)nc3c2F)c1C(F)(F)F [Example 12-1, 6-(2-{[(2R,7aS)-2-fluoro-hexahydro-1H-pyrrolizin-7a-yl]methoxy}-4-[(1S,6R)-3,9-diazabicyclo[4.2.1]nonan-3-yl]-8-fluoroquinazolin-7-yl)-4-methyl-5-(trifluoromethyl)pyridin-2-amine]	6.3 µM	0.03 µM
Cc1cc(N)nc(-c2c(Cl)cc3c(N4CC[C@H]5CC[C@@H](C4)N5)nc(OC[C@]45CCCN4C[C@@H](F)C5)nc3c2F)c1C(F)(F)F [Example 4-2, 6-(2-{[(2S,7aR)-2-fluoro-hexahydro-1H-pyrrolizin-7a-yl]methoxy}-6-chloro-4-[(1S,6R)-3,9-diazabicyclo[4.2.1]nonan-3-yl]-8-fluoroquinazolin-7-yl)-4-methyl-5-(trifluoromethyl)pyridin-2-amine]	0.43 µM	0.006 µM
CN1CCC[C@@]2(COc3nc(N4CC[C@H]5CC[C@@H](C4)N5)c4ccc(-c5cc(O)cc6ccccc56)c(F)c4n3)CCC[C@@H]12 [Example 9-1, 4-(2-{[(4aS,7aR)-1-methyl-octahydro-1H-cyclopenta[b]pyridin-4a-yl]methoxy}-4-[(1S,6R)-3,9-diazabicyclo[4.2.1]nonan-3-yl]-8-fluoroquinazolin-7-yl)naphthalen-2-ol]	5.1 µM	0.04 µM
CCc1cccc2cc(O)cc(-c3c(Cl)cc4c(N5CC[C@H]6CC[C@@H](C5)N6)nc(OC[C@@]56CCCN5C[C@H](F)C6)nc4c3F)c12 (single isomer, unassigned) [Example 8-2]	19.6 µM	1.3 µM
Cc1cc(N)nc(-c2c(Cl)cc3c(N4CC[C@H]5CC[C@@H](C4)N5)nc(OC[C@@]45CCCN4C[C@@H](F)C5)nc3c2F)c1C(F)(F)F [Example 5, 6-(2-{[(2S,7aS)-2-fluoro-hexahydro-1H-pyrrolizin-7a-yl]methoxy}-6-chloro-4-[(1S,6R)-3,9-diazabicyclo[4.2.1]nonan-3-yl]-8-fluoroquinazolin-7-yl)-4-methyl-5-(trifluoromethyl)pyridin-2-amine]	2.87 µM	<0.002 µM
Cc1cc(N)nc(-c2c(Cl)cc3c(N4CC[C@H]5CC[C@@H](C4)N5)nc(OCC4(CN5CC[C@@H](F)C5)CC4)nc3c2F)c1C(F)(F)F [Example 10-4, 6-{6-chloro-4-[(1S,6R)-3,9-diazabicyclo[4.2.1]nonan-3-yl]-8-fluoro-2-[(1-{[(3R)-3-fluoropyrrolidin-1-yl]methyl}cyclopropyl)methoxy]quinazolin-7-yl}-4-methyl-5-(trifluoromethyl)pyridin-2-amine]	41.5 µM	0.11 µM
Cc1cc(N)nc(-c2c(Cl)cc3c(N4CC[C@H]5CC[C@@H](C4)N5)nc(OCC4(CN5CCOCC5)CC4)nc3c2F)c1C(F)(F)F [Example 10-7, 6-{6-chloro-4-[(1S,6R)-3,9-diazabicyclo[4.2.1]nonan-3-yl]-8-fluoro-2-({1-[(morpholin-4-yl)methyl]cyclopropyl}methoxy)quinazolin-7-yl}-4-methyl-5-(trifluoromethyl)pyridin-2-amine]	12.1 µM	0.06 µM
Cc1cc(N)nc(-c2c(Cl)cc3c(N4CC[C@H]5CC[C@@H](C4)N5)nc(OC[C@@]45CCCN4C[C@@H](OC(F)F)C5)nc3c2F)c1C(F)(F)F (single isomer, unassigned) [Example 10-6]	>100 µM	0.2 µM
Cc1cc(N)nc(-c2c(Cl)cc3c(N4CC[C@H]5CC[C@@H](C4)N5)nc(OCC4(CN5CCCCC5)CC4)nc3c2F)c1C(F)(F)F [Example 10-8, 6-{6-chloro-4-[(1S,6R)-3,9-diazabicyclo[4.2.1]nonan-3-yl]-8-fluoro-2-({1-[(piperidin-1-yl)methyl]cyclopropyl}methoxy)quinazolin-7-yl}-4-methyl-5-(trifluoromethyl)pyridin-2-amine]	2.6 µM	0.02 µM
Cc1cc(N)nc(-c2c(Cl)cc3c(N4CC[C@H]5CC[C@@H](C4)N5)nc(OCC4(CN5CCCC(F)C5)CC4)nc3c2F)c1C(F)(F)F (stereo partly drawn) [Example 10-10, 6-{6-chloro-4-[(1S,6R)-3,9-diazabicyclo[4.2.1]nonan-3-yl]-8-fluoro-2-({1-[(3-fluoropiperidin-1-yl)methyl]cyclopropyl}methoxy)quinazolin-7-yl}-4-methyl-5-(trifluoromethyl)pyridin-2-amine]	2.4 µM	0.02 µM
CCc1cccc2cc(O)cc(-c3ccc4c(N5CC[C@H]6CC[C@@H](C5)N6)nc(OC[C@@]56CCCN5C[C@H](F)C6)nc4c3F)c12 [Example 11-5, 4-(2-{[(2R,7aS)-2-fluoro-hexahydro-1H-pyrrolizin-7a-yl]methoxy}-4-[(1S,6R)-3,9-diazabicyclo[4.2.1]nonan-3-yl]-8-fluoroquinazolin-7-yl)-5-ethylnaphthalen-2-ol]	3.2 µM	0.03 µM
Oc1cc(-c2c(Cl)cc3c(N4CC[C@H]5CC[C@@H](C4)N5)nc(OC[C@@]45CCCN4C[C@H](F)C5)nc3c2F)c2c(F)cccc2c1 (single isomer, unassigned) [Example 8-6]	3.6 µM	0.07 µM
Cc1cc(N)nc(-c2c(Cl)cc3c(N4CC[C@H]5CC[C@@H](C4)N5)nc(OC[C@]45CCC[C@H]4N(C)CCC5)nc3c2F)c1C(F)(F)F [Example 3, 6-(2-{[(4aS,7aR)-1-methyl-octahydro-1H-cyclopenta[b]pyridin-4a-yl]methoxy}-6-chloro-4-[(1S,6R)-3,9-diazabicyclo[4.2.1]nonan-3-yl]-8-fluoroquinazolin-7-yl)-4-methyl-5-(trifluoromethyl)pyridin-2-amine]	0.05 µM	<0.002 µM
CN1CCC[C@H]1COc1nc(N2CC[C@H]3CC[C@@H](C2)N3)c2cc(Cl)c(-c3cc(O)cc4ccccc34)c(F)c2n1 [Example 6, 4-{6-chloro-4-[(1S,6R)-3,9-diazabicyclo[4.2.1]nonan-3-yl]-8-fluoro-2-{[(2S)-1-methylpyrrolidin-2-yl]methoxy}quinazolin-7-yl}naphthalen-2-ol]	3.68 µM	0.01 µM
Cc1cc(N)nc(-c2c(Cl)cc3c(N4CC[C@H]5CC[C@@H](C4)N5)nc(OC[C@@]45CCCN4C[C@H](F)C5)nc3c2F)c1C(F)(F)F [Example 4-1, 6-(2-{[(2R,7aS)-2-fluoro-hexahydro-1H-pyrrolizin-7a-yl]methoxy}-6-chloro-4-[(1S,6R)-3,9-diazabicyclo[4.2.1]nonan-3-yl]-8-fluoroquinazolin-7-yl)-4-methyl-5-(trifluoromethyl)pyridin-2-amine]	0.06 µM	0.005 µM
Oc1cc(-c2c(Cl)cc3c(N4CC[C@H]5CC[C@@H](C4)N5)nc(OC[C@]45CCCN4C[C@@H](F)C5)nc3c2F)c2ccccc2c1 (single isomer, unassigned) [Example 8-9]	0.7 µM	0.005 µM
Oc1cc(-c2ccc3c(N4CC[C@H]5CC[C@@H](C4)N5)nc(OC[C@@]45CCCN4C[C@H](F)C5)nc3c2F)c2c(F)cccc2c1 [Example 11-2, 4-(2-{[(2R,7aS)-2-fluoro-hexahydro-1H-pyrrolizin-7a-yl]methoxy}-4-[(1S,6R)-3,9-diazabicyclo[4.2.1]nonan-3-yl]-8-fluoroquinazolin-7-yl)-5-fluoronaphthalen-2-ol]	1.0 µM	0.01 µM
Cc1cc(N)nc(-c2ccc3c(N4CC[C@H]5CC[C@@H](C4)N5)nc(OCC45CCCN4CC(F)(F)C5)nc3c2F)c1C(F)(F)F (stereo partly drawn) [Example 12-4, 6-{4-[(1S,6R)-3,9-diazabicyclo[4.2.1]nonan-3-yl]-2-[(2,2-difluoro-hexahydro-1H-pyrrolizin-7a-yl)methoxy]-8-fluoroquinazolin-7-yl}-4-methyl-5-(trifluoromethyl)pyridin-2-amine]	>100 µM	1.1 µM
Oc1cc(-c2c(Cl)cc3c(N4CC[C@H]5CC[C@@H](C4)N5)nc(OC[C@@]45CCCN4C[C@H](F)C5)nc3c2F)c2c(F)cccc2c1 (single isomer, unassigned) [Example 8-5]	0.07 µM	–
